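1) Cells in 96-well plates. 2) Compound, 48 h, 5 concentrations. 3) Linear interpolation between surrounding doses. 4) Unreached endpoint = highest concentration. GI50 marks 50% less growth. At the TGI there is no net growth.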 Bounds are passed on as bounds.

Some test systems named below: K-562 leukemia; M14 melanoma; CAKI-1 renal; CCRF-CEM leukemia; NCI-H23 lung; IGROV1 ovarian; SF-295 CNS; SN12C renal; TK-10 renal; SNB-19 CNS.
What all share (assay): NCI tumour cell line growth inhibition, 48 h

`CCOC(=O)CC1(O)C=CC(=O)C=C1`: the GI50 was 1.37 µg/mL with K-562 leukemia; 1.67 µg/mL in the experiment with M14 melanoma; 2.62 µg/mL in the experiment on CAKI-1 renal; 0.757 µg/mL with CCRF-CEM leukemia; 0.541 µg/mL in the experiment on NCI-H23 lung; 0.885 µg/mL in the experiment with IGROV1 ovarian. For the same compound, the GI50 in the experiment on SF-295 CNS was 2.55 µg/mL; in the experiment with SN12C renal, 2.46 µg/mL; in the experiment on TK-10 renal, 2.12 µg/mL; in the experiment on SNB-19 CNS, 1.53 µg/mL. The TGI in the experiment with K-562 leukemia came out at 10.8 µg/mL; in the experiment on M14 melanoma, 4.35 µg/mL; in the experiment on CAKI-1 renal, 4.71 µg/mL; in the experiment on CCRF-CEM leukemia, 7.02 µg/mL; in the experiment with NCI-H23 lung, 1.75 µg/mL; with IGROV1 ovarian, 2.19 µg/mL. Besides, the TGI with SF-295 CNS was 5.07 µg/mL; with SN12C renal it was 4.6 µg/mL; in the experiment on TK-10 renal it was 6.04 µg/mL; with SNB-19 CNS it was 5.05 µg/mL.

As to `COC(=O)CCC(=O)c1c(C)[nH]c(/C=C2\N=C(c3ccc[nH]3)C=C2OC)c1C`, the GI50 in the experiment on K-562 leukemia is 1.24 µM; in the experiment with M14 melanoma, 0.431 µM; with CAKI-1 renal it was 0.869 µM; with CCRF-CEM leukemia it was 0.199 µM; with NCI-H23 lung, 1.79 µM; in the experiment on IGROV1 ovarian it was 0.365 µM. Further, the GI50 with SF-295 CNS is 1.62 µM; in the experiment with SN12C renal it was 1.45 µM; in the experiment with TK-10 renal it was 1.18 µM; with SNB-19 CNS, 3.2 µM. The TGI amounted to 3.18 µM in the experiment on K-562 leukemia; 1.91 µM with M14 melanoma; 2.95 µM in the experiment with CAKI-1 renal; 2.37 µM in the experiment with CCRF-CEM leukemia; 4.7 µM in the experiment on NCI-H23 lung; 1.6 µM with IGROV1 ovarian. Moreover, the TGI with SF-295 CNS came to 4.08 µM; with SN12C renal, 5.38 µM; in the experiment with TK-10 renal, 7.74 µM; in the experiment on SNB-19 CNS it was 14.2 µM.

As for `Cn1c(COC(=O)N2CCCCC2)nc2c(N3CCOCC3)nc(-c3ccccc3)nc21`, the GI50 in the experiment on K-562 leukemia was 0.364 µM; with M14 melanoma, 0.509 µM; in the experiment with CAKI-1 renal, 0.354 µM; in the experiment with CCRF-CEM leukemia, 0.307 µM; with NCI-H23 lung it was 1.48 µM; with IGROV1 ovarian it was 0.534 µM. Besides, the GI50 in the experiment with SF-295 CNS was 1.58 µM; in the experiment with SN12C renal, 0.868 µM; with TK-10 renal, 1.35 µM; in the experiment on SNB-19 CNS, 1.51 µM. Further, the TGI in the experiment on K-562 leukemia came out at 6.7 µM; with M14 melanoma it was 1.89 µM; in the experiment on CAKI-1 renal, 1.51 µM; in the experiment on CCRF-CEM leukemia, 1.48 µM; in the experiment with NCI-H23 lung it was 3.11 µM; in the experiment on IGROV1 ovarian it was 1.81 µM. Further, the TGI amounted to 2.97 µM in the experiment on SF-295 CNS, 2.17 µM with SN12C renal, 2.66 µM in the experiment on TK-10 renal and 2.86 µM with SNB-19 CNS.

With `Cc1ccccc1C(=O)Oc1ccc(Oc2ccccc2)cc1`, the TGI in the experiment on K-562 leukemia, in the experiment with M14 melanoma, in the experiment with CAKI-1 renal, in the experiment on CCRF-CEM leukemia, in the experiment with NCI-H23 lung and in the experiment on IGROV1 ovarian was more than 100 µM in each case. Besides, the TGI in the experiment on SF-295 CNS, with SN12C renal, in the experiment with TK-10 renal and with SNB-19 CNS was more than 100 µM each time.

For the compound `O=C(OCCOCBr)c1ccccc1`, the TGI in the experiment with K-562 leukemia, in the experiment on M14 melanoma, with CAKI-1 renal, with CCRF-CEM leukemia, in the experiment with NCI-H23 lung and in the experiment on IGROV1 ovarian was more than 100 µM throughout. Also, the TGI in the experiment on SF-295 CNS, with SN12C renal, in the experiment on TK-10 renal and in the experiment with SNB-19 CNS was more than 100 µM each time.

In the case of `CC(=O)N1CC2Nc3ccccc3C2CC1CO` (stereo not given), the TGI in the experiment with K-562 leukemia, in the experiment with M14 melanoma, in the experiment with CAKI-1 renal, with CCRF-CEM leukemia, with NCI-H23 lung and with IGROV1 ovarian was more than 100 µM throughout. The TGI in the experiment with SF-295 CNS, in the experiment with SN12C renal, in the experiment with TK-10 renal and in the experiment on SNB-19 CNS was more than 100 µM throughout.

Take `O=Cc1ccc(-c2ccc(-c3ccc(C=O)s3)o2)s1`: the TGI was more than 100 µM in the experiment on K-562 leukemia; more than 100 µM with M14 melanoma; 1.31 µM in the experiment on CAKI-1 renal; more than 100 µM with CCRF-CEM leukemia; more than 100 µM in the experiment on NCI-H23 lung; 35.8 µM in the experiment on IGROV1 ovarian. Besides, the TGI in the experiment with SF-295 CNS was more than 100 µM; in the experiment with SN12C renal it was more than 100 µM; in the experiment with TK-10 renal, 7.33 µM; in the experiment with SNB-19 CNS, more than 100 µM.

Consider `O=C1C=C(Nc2ccccc2C(=O)CC(=O)C(=O)Nc2cccc(C(F)(F)F)c2)c2ccccc2C1=O`, for which the TGI with K-562 leukemia was more than 94.9 µM; with M14 melanoma, 31.7 µM; in the experiment with CAKI-1 renal, 99.8 µM; with CCRF-CEM leukemia, 44.7 µM; with NCI-H23 lung it was 30.5 µM; in the experiment with IGROV1 ovarian, more than 100 µM. The TGI was 53.7 µM with SF-295 CNS, 36.3 µM in the experiment on SN12C renal, more than 100 µM with TK-10 renal and more than 100 µM in the experiment with SNB-19 CNS.

These data come from PubChem BioAssay (NCI).
